The source of these data is patent US7160916B2, “Method of increasing bone density or treating osteoporosis” (Yung Shin Pharmaceutical Ind. Co., Ltd., priority 2003, dated 2007).

Assay [1] deals with α5 and β1 integrins. The experiment in a line: Flow cytometry of surface expression of integrins. Type of assay: cell-based, rat. The conditions noted are these: treatment for 24 hr. As to the method: Fibronectin (Fn) plays an important role in the regulation of adhesion, migration, and maturation of osteoblasts. Fn fibrillogenesis is involved in the process of bone mineralization. The effect of Indazole 1 on Fn fibrillogenesis in cultured osteoblasts was examined. The immobilized form of fibrillogenesis from the endogenously released Fn by monolayer Day 3˜5 osteoblasts was studied using immunocytochemistry. Incubation of Day-3 osteoblasts with Indazole 1 (10 μM) for 24 hr increased extracellular Fn assembly. Flow cytometry was used to analyze the effect of Indazole 1 on the surface expression of α5 and β1 integrins. […] On the other hand, the collagen synthesis was increased by Indazole 1 only at a higher concentration of 10 μM.
(In general: A flow cytometer gives signals particle by particle.)

Assay [2] deals with Male SD rats. The assay is described as follows: Local injection into proximal tibia, bone histomorphometry (bone growth). Format: in vivo, rat. As to the method: Assay of bone resorption of osteoclast: Osteoclast precursors were isolated from rat long bones as mentioned above. The cells were re-suspended in a complete DMEM medium and plated into a calcium phosphate apatite-coated 24-well plate, OAAS (Oscotec, OCT USA Inc.) at 1×10^6 cells/0.5 ml/well. The cells were cultured for 5 days in the presence of M-CSF (20 ng/ml) plus sRANKL (50 ng/ml). Indazole 1 was injected daily for additional 3 days in the absence of M-CSF and sRANKL. Culture was terminated on day 8 and the remaining cells in the plate were lysed using 1 N NaOH. Five images per well were obtained using an inverted microscope (200×), and resorbed area was measured using an image analyzer. Local injection Male SD rats weighing 70–88 gm were used. Implantation of a cannula (22G) was done from the posteriolateral side into the proximal tibial metaphysis in both limbs of rats anesthetized with pentobarbital. The cannula had its outer end in the subcutaneous tissue. Indazole 1 was percutaneously injected through the cannula into the proximal tibia once/day for 1 week. The same concentration of DMSO diluted with normal saline was injected into the right side for comparison. On day 14, the rats were sacrificed and tibiae were fixed in 10% formaldehyde for 48 h at 4° C. Bone histomorphometry: After formalin fixation of tibia was completed, the tibiae were then decalcified in 0.5 N hydrochloric acid, dehydrated in an ascending series of ethanol solution and acetone, and embedded in paraffin. Serial sections (5 μm) were cut longitudinally and stained with Mayer's hematoxylin-eosin solution (Yang et al. (1993) Calcif Tissue Int 52:57–61). Images of the growth plate and proximal tibia were photographed using a photoMicroGraphic Digitize integrate System (MGDS; Total-Integra Technology Co., Ltd., Taipei, Taiwan). Bone volume measurements were performed on the whole secondary spongiosa, which is located under the primary spongiosa and characterized by a network of larger trabeculae. Bone volumes were calculated using an image analysis software. All measurements were done in a single-blind fashion. Bone growth: Male young rats (SD) weighing 70–90 gm were divided into six groups. The average weight of the rats in each group was 73.9±1.1 gm. Indazole 1 was dissolved in DMSO and diluted with saline to a final concentration of 10 μM. One of the six groups was a control group, and the other groups were punctuated with a needle cannula alone, injected with a vehicle using a needle cannula (day 1, once), injected with Indazole 1 (day 1, once), injected with a vehicle using a needle cannula (days 1–7, daily), and injected with Indazole 1 (days 1–7, daily), respectively. […] Trabecular bone in the secondary spongiosa increased by 90% after local injection of Indazole 1 for 7 days.

In assay [3] the test system is Primary osteoblast cells. The experiment in a line: Assay of alkaline phosphatase activity in cultured osteoblasts. Type of assay: cell-based, rat. As to the method: Primary osteoblast cultures: Primary osteoblast cells were prepared from calvaria of 18-day-old fetal Sprague-Dawley (SD) rats according to the following method: Pregnant rats were put in anesthesia using intraperitoneal injection of trichloroacetaldehyde (200 mg/kg). The calvaria of the fetal rats were then dissected with aseptic technique. Soft tissues were removed under a dissecting microscope. The calvaria were divided into small pieces and then treated with 0.1% collagenase (Sigma Chemical, St. Louis, Mo.) solution for 10 minutes at 37° C. The cells released from the calvariae by two 20-minute sequential collagenase digestions were pooled and filtered through 70 μm nylon filters (Falcon, BD BioSciences, San Jose, Calif.). The cells were then grown on plastic cell culture dishes in 95:5 air-CO2 with Dulbecco's modified Eagle's medium (DMEM) (Gibco, Grand Island, N.Y.) which was supplemented with 20 mM HEPES and 10% heat-inactivated FCS, 2 mM-glutamine, penicillin (100 U/ml) and streptomycin (100 μg/ml) (pH adjusted to 7.6). The cell medium was changed twice a week. Osteoblasts were confirmed by morphology and expression of alkaline phosphatase (ALP). To examine the maturation of osteoblasts, cells were cultured for up to 14 days in a growth medium containing ascorbic acid (50 μg/ml) (Sigma Chemical, St. Louis, Mo.) and β-glycerophosphate (10 mM) (Sigma Chemical, St. Louis, Mo.) and the medium was changed every 3 day. Assay of alkalinephosphatase activity: Cells cultured in 6-well plates in the presence or absence of Indazole 1 were harvested in 1 ml of 0.2% Nonidet P-40 and cell suspension was disrupted by sonication. After centrifugation at 1500 g for 5 min, ALP activity in the supernatant was measured by the method of Lowry et al (1954) J Biol Chem 207:19–37.

On to `OCc1ccc(-c2nn(Cc3ccccc3)c3ccccc23)o1` [Indazole 1, 1-benzyl-3-(5′-hydroxymethyl-2′-furyl)-indazole], for which the “cell surface expression of α5 and β1 integrins” value in assay [1] is “increased”. In assay [2] (local injection), the “effect on tibia length” value is “not significantly affected”. Moreover, the “Trabecular bone in the secondary spongiosa increased by” value in assay [2] (local injection for 7 days) amounted to 90%. Also, the “bone volume of the secondary spongiosa” value in assay [2] (local injection into proximal tibia, 0.1 nmole, daily for 7 days, then 7 further days, young male rats) is “significantly increased”. Moreover, the Tibia length in assay [2] (local injection, n=9) turned out to be 3.32±0.02 cm. Besides, the “concentration dependence of the increase of ALP activity” value in assay [3] was “concentration-dependent”. Besides, the “ALP activity (ALP staining)” value in assay [3] (10 μM for 2 weeks) is “significantly increased”.
